Test results from patent publication US10130641B2, “Compositions of vitamin D and methods for their use and manufacture” (priority 2015, dated 2018).

Assay: Plasma concentration of vitamin D3 in rats after a single oral dose (absorption / bioavailability study)
Type: in vivo, Wistar rats
Conditions: for Cmax / Tmax / AUC: Area Under the plasma conc.-time Curve: rat plasma, 50,000 IU oral; for AUC: Area Under the plasma conc.-time Curve: trapezoid rule; for Mean plasma concentration of vitamin D3: rat, 50,000 IU oral
Description: The present study was undertaken to compare the rate of absorption of vitamin D3, from formulated vitamin D3 with tomato seed oil and high-fat meal. The absorption was studied by serial measurements of the plasma concentration of vitamin D3 after ingestion of a pharmacological dose of the vitamin dissolved in the vehicles.
Male Albino Wistar rats were used. Animals were kept under a twelve-hour light/dark cycle. Group I was treated with normal diet and vitamin D3 (50,000 IU). Group II was given Vitamin D3 (50,000 IU) with High-Fat diet. Group III was treated with Vitamin D3 (50,000 IU) formulation in tomato seed oil orally. 10 mL/kg body weight was used for gavage administration. […] Animals were ether anesthetized and blood samples (approximately 0.5 mL) were collected via retro-orbital sinus puncture.
Blood samples were collected in heparinized eppendorf tubes. Tubes were inverted several times to mix and were then placed on ice and centrifuged to separate plasma within 1 h time. After centrifugation, plasma was transferred into storage tubes (0.5 mL), which were stored frozen (approximately −70° C.) until analyzed.
Plasma processing involved liquid-liquid extraction using acetonitrile and methanol (80:20). 100 μL aliquot of plasma was mixed with 1 mL of acetonitrile and methanol. After vortex mixing for 1 min, the sample was centrifuged at 7,000 rpm at 4° C. for 10 min to remove precipitated proteins; the supernatant was transferred to a clean tube and dried under nitrogen at room temperature (approximately 25° C.). After the evaporation was completed, the residue was reconstituted in 100 μL of methanol with 5 min of sonication, added to 400 μL of water, vortex mixed, and centrifuged again. The resulting supernatant was transferred to a sample vial for instrumental analysis.
Chromatography was performed using a Phenomenex C18 […]×4.6 mm, 5 μm column, maintained at a temperature of 35° C. A flow rate of 1 mL/min was used; mobile phase acetonitrile and methanol (80:20); elution gradient program, injection volume 5 μL, detection UV, 280 nm. Total run time was 15 min.
The data was represented in a plasma level-time curve. The area under time curve (AUC) was calculated using Trapezoid rule. The maximum concentration (Cmax) and maximum time (Tmax) were obtained directly from generated data. The maximum plasma concentration (Cmax) and the time to reach Cmax (Tmax) were obtained directly from the plasma concentration-time curve. All values were expressed as mean±standard deviation (SD) except Tmax mentioned as median.

| Structure (SMILES) | Cmax (normal diet) | Tmax (normal diet) | AUC: Area Under the plasma conc.-time Curve (normal diet) | Mean plasma concentration of vitamin D3 (normal diet, 0 min) | Mean plasma concentration of vitamin D3 (normal diet, 30 min) | Mean plasma concentration of vitamin D3 (normal diet, 1 hrs) | Mean plasma concentration of vitamin D3 (normal diet, 2 hrs) | Mean plasma concentration of vitamin D3 (normal diet, 3 hrs) | Mean plasma concentration of vitamin D3 (normal diet, 4 hrs) | Mean plasma concentration of vitamin D3 (normal diet, 6 hrs) | Mean plasma concentration of vitamin D3 (normal diet, 8 hrs) | Mean plasma concentration of vitamin D3 (normal diet, 12 hrs) | Mean plasma concentration of vitamin D3 (normal diet, 24 hrs) | Mean plasma concentration of vitamin D3 (normal diet, 48 hrs) | Mean plasma concentration of vitamin D3 (normal diet, 72 hrs) | Cmax (high-fat diet) | Tmax (high-fat diet) | AUC: Area Under the plasma conc.-time Curve (high-fat diet) | Mean plasma concentration of vitamin D3 (high-fat diet, 0 min) | Mean plasma concentration of vitamin D3 (high-fat diet, 30 min) |
| --- | --- | --- | --- | --- | --- | --- | --- | --- | --- | --- | --- | --- | --- | --- | --- | --- | --- | --- | --- | --- |
| C=C1CC[C@H](O)C/C1=C/C=C1\CCC[C@]2(C)[C@@H]([C@H](C)CCCC(C)C)CC[C@@H]12 [Vitamin D3 + Normal Diet, cholecalciferol] | 47.03 ± 4.15 µg/mL | 24 h | 3478 + 1758 μg · hr/ml | 0 µg/mL | 0 µg/mL | 1.867 ± 0.80 µg/mL | 4.31 ± 1.53 µg/mL | 9.87 ± 4.14 µg/mL | 12 ± 4.97 µg/mL | 10.74 ± 8.06 µg/mL | 13.59 ± 4.160 µg/mL | 16.06 ± 3.50 µg/mL | 47.03 ± 4.15 µg/mL | 17.94 ± 1.33 µg/mL | 1.07 ± 0.35 µg/mL |  |  |  |  |  |
| C=C1CC[C@H](O)C/C1=C/C=C1\CCC[C@]2(C)[C@@H]([C@H](C)CCCC(C)C)CC[C@@H]12 [Vitamin D3 + High-Fat Diet, cholecalciferol] |  |  |  |  |  |  |  |  |  |  |  |  |  |  |  | 86.09 ± 12.14 µg/mL | 12 h | 1595 + 600.6 μg · hr/ml | 0 µg/mL | 0 µg/mL |
